Where “and” joins values, the source holds several entries; their conditions need not be identical. Identical values can stand only once.
System: DLD-1 KLF5 promoter-luciferase reporter, luminescence
Experiment: KLF5 promoter reporter inhibitors, late-stage follow-up, luminescence, DLD-1 cells, powder samples (AID 2750)

IC50	Compound
0.0752 µM	CCCc1ccc(-c2ccc(/C=C/C(=O)O)cc2)nc1
0.357 µM	COc1ccc(OCc2cccc(C(=O)Nn3cc([N+](=O)[O-])cn3)c2)cc1
0.0201 µM	CCOC(=O)c1sc(NC(=O)c2cc3c(s2)CCC(C)C3)nc1C (stereo unspecified)
0.0113 µM	COc1ccc(C(=O)Nc2ccccc2C(=O)NN=Cc2ccc(O)c(OC)c2)cc1
0.217 µM	O=C(NCCc1ccccc1)c1ccc2c(c1)OCCCO2
0.595 µM	CC(C)(C)c1ccc(C(=O)O/N=C(\N)c2ccccn2)cc1
0.603 µM	CN(C(=O)COC(=O)/C=C/c1cccc([N+](=O)[O-])c1)C1CCS(=O)(=O)C1 (stereo unspecified)
0.285 µM	c1ccc(-c2ccc(-c3nc(-c4ccccn4)no3)cc2)cc1
0.162 µM	O=C(NCCc1ccccc1F)c1ccc2c(c1)OCCO2
0.0271 µM	CN1CCN(c2ccc(-c3ccc4ccccc4n3)cc2)CC1
0.18 µM	Cc1ccc2nc(NC(=O)CCCc3nc4ccccc4s3)sc2c1
0.0676 µM	Cc1cc(C(=O)CN2C(=O)c3ccccc3S2(=O)=O)c(C)n1CC1CCCO1 (stereo unspecified)
0.0221 µM and 0.0187 µM	CCOC(=O)c1sc(NC(=O)c2ccc3ncsc3c2)nc1C
0.0104 µM	COc1cccc(C=NNc2ccc(C(=O)O)cc2)c1O
0.132 µM	CCCc1ccc(C(=O)O/N=C(\N)c2ccccn2)cc1
0.0718 µM and 0.0572 µM	CC(C)(C)c1ccc(-c2noc(CCC(=O)Nc3cccnc3)n2)cc1

Reference: PubChem BioAssay AID2750 (The Scripps Research Institute Molecular Screening Center, 2010)
